Source: patent EP1169044B1, “USE OF FUCOSYLATED SIALYLATED N-ACETYL LACTOSAMINE CARBOHYDRATE STRUCTURES FOR INHIBITION OF BACTERIAL ADHERENCE” (Borén, Thomas, priority 1999, dated 2000)

What was measured:
[1] = system: Helicobacter pylori strain CCUG 17875; assay: thin-layer chromatogram binding assay (radiolabelled bacteria overlaid on separated glycosphingolipids); details: glycosphingolipids on thin-layer chromatograms, autoradiogram
Procedure: (§1) The glycosphingolipids were separated and (A) visualised with anisaldehyde. Duplicate chromatograms were incubated with monoclonal (B) anti-sialyl-Lewis x, (C) anti-sialyl-Lewis a, and radiolabelled H. pylori (D) strain CCUG 17875, (E) the BabA1A2 mutant strain, and (F) strain CCUG 17874. Autoradiography was for 12 hr. The lanes contained: 1, Acid glycosphingolipids of calf brain, 40 µg; 2, Acid glycosphingolipids of human neutrophil granulocytes, 40 µg; 3, Acid glycosphingolipids of human neutrophil granulocytes after de-sialylation, 40 µg; 4, Acid glycosphingolipids of human gall bladder adenocarcinoma, 40 µg; 5, Acid glycosphingolipids of human gall bladder adenocarcinoma after de-sialylation, 40 µg; 6, NeuAcα3Galβ4(Fucα3)GlcNAcβ3Galβ4(Fucα3)GlcNAcβ3Galβ4Glcβ1Cer isolated from human gall bladder adenocarcinoma, 1 µg; 7, NeuAcα3Galβ3(Fucα4)GlcNAcβ3Galβ4Glcβ1-Cer (sialyl-Lewis a hexaglycosylceramide) isolated from human gall bladder adenocarcinoma, 4 µg; 8, NeuAcα3Galβ4(Fucα3)GlcNAcβ3Galβ4Glcβ1Cer (sialyl-Lewis x hexaglycosyl-ceramide), 4 µg; 9, Fucα2Galβ3(Fucα4)GlcNAcβ3Galβ4Glcβ1Cer (Lewis b-6 hexaglycosylceramide) of human small intestine, 4 µg.
(§2) Culture and ^35S-labelling of H. pylori was as outlined in (Ångström, J., Teneberg, S., Abul Milh, M,. Larsson, T., Leonardsson, I., Olsson, B.-M., Ölwegård Halvarsson, M., Danielsson, D., and Karlsson, K.-A. (1998). The lactosylceramide binding specificity of Helicobacter pylori. Glycobiology 8, 297-309.). Mixtures of glycosphingolipids (20-40 µg/lane) or pure compounds (0.002-4 µg/lane) were separated on aluminium-backed silica gel 60 HPTLC plates (Merck), using chloroform:methanol:water 60:35:8 (v/v/v) as solvent system. Chemical detection was done with anisaldehyde (Waldi, D. (1962) Sprühreagentien für die dünnschicht-chromatographie. In Dünnschicht-Chromatographie, E. Stahl ed. (Berlin: Springer-Verlag) pp. 496-51).
(§3) Binding of radiolabelled H. pylori to glycosphingolipids on thin-layer chromatograms was performed as described above (Ångström et al., 1998) using suspensions of bacteria diluted in phosphate-buffered saline (PBS), pH 7.3, to 1x10^8 CFU/ml. The specific activities of the suspensions were approximately 1 CPM per 100 H. pylori organisms. Binding of monoclonal antibodies was done as described (Magnani, J.L., Brockhaus, M., Smith, D.F., Ginsburg, V., Blaszczyk, M., Mitchell, K.F., Steplewski, Z., and Koprowski, H. (1981). A monosialoganglioside is a monoclonal antibody-defined antigen of colon-carcinoma. Science 212, 55-56). Anti-sialyl-Lewis x monoclonal antibodies (clone KM-93) were from Seikagaku Corp., Tokyo, Japan and anti-sialyl-Lewis a monoclonal antibodies (CA 19-9) from Signet Laboratories, Inc., Dedham, MA 02026, USA.
(§4) Screening of potential receptor structures unique for thebabA1/babA2-mutant was performed by adherence experiments to well-defined panels of MS-characterized glycolipids, from defined and unique sources and tissues. Binding of H. pylori and monoclonal antibodies to glycosphingo-lipids was evaluated using the thin-layer chromatogram binding assay (J. Ångström et al., Glycobiology 8, 297 (1998); J. M. McKibbin et al., J. Biol. Chem. 257,755 (1982)), i.e., glyco-lipids were separated on HPTLC-plates, and H. pylori CCUG 17875 wild type bacteria and the babA1/babA2-mutant were overlaid on the plates and binding of radio labelled bacterial cells was detected. (See Experimental procedures).

[2] = system: strain CCUG 17874, the BabA2 mutant and the BabA1A2 mutant; assay: as above; set-up: species or system Helicobacter pylori; details: for Binding obtained with strain CCUG 17874, the babA2 mutant and the babA1A2 mutant: glycosphingolipids on thin-layer chromatograms, autoradiogram; for binding to glycosphingolipids on thin-layer chromatograms (in words): CCUG 17874, babA2 mutant, babA1A2 mutant
Procedure: as §1, §2, §3, §4

[3] = system: H. pylori strains; assay: radio immuno analysis (RIA) with 125I-labelled neoglycoconjugates; type: binding, Helicobacter pylori; details: strains of Fig. 4 (BabA2 mutant, babA1A2 mutant, CCUG 17875, CCUG 17874), 400 ng conjugate, 30 min
Procedure: Bars, from the left to the right; The sialyl-alfa2.61actose-, sialyl-alfa2.31actose-, sialyl-Lewis a-, sialyl-Lewis x-, and Lewis b-, synthesised sialyl-Lewis x- sialyl-acetyllactosaminee, both with a either a 3 carbon or 14 carbon (extended/hydrophilic) spacer, conjugated to albumin, Finally, the histo-blood group antigen Lewis y (synthesised penta-saccharide) (V. Behar and S.J. Danishefsky, Angew. Chem. Int. Ed. Engi, 1994, 33, no. 14, 1468.), was analysed as a neo-glycoconjugate.
(§5) The sialyl-alfa2.3lactose-, sialyl-alfa2.61actose-, sialyl-Lewis a-, and Lewis b-oligosaccharide antigens used for neoglycoconjugate preparations were purified by HPLC, structurally identified and characterized with NMR-spectroscopy, and more than 95% pure. These conjugates were attached to albumin with an APD (acetylphenylenediamine) spacer attached to the carbohydrate by reductive animation and thus the terminal reducing monosaccharide unit of the oligosaccharide is reduced and is present as an aminoalditol, IsoSep AB, Tullinge, Sweden (T. Borén, P. Falk, K. A. Roth, G. Larson, and S. Normark, Science. 262, 1892 (1993), P. D. Rye, Nature Biotechnology 2, 155 (1996)). The synthesised sialyl-Lewis x- tetrasaccharide antigen was conjugated to albumin with the MPE (mercaptopropionyl-amidoethyl) -spacer, IsoSep AB. Synthesised sialyl-Lewis x-tetrasaccharide and sialyl-acetyllactosaminee, both with a either a 3 carbon or 14 carbon (extended/hydrophilic) spacer, conjugated to albumin, were obtained from Dextra Laboratories, Reading, UK. The RIA (Fig. 4) was performed according to (P. Falk, T. Borén, D. Haslam, M. G. Caparon, Meth. Cell Biol. 45, 161 (1994)) with minor modifications; the glycoconjugates were ^125I-labelled by the Chloramine T method. 1 ml of bacteria (A600= OD 0.10) was incubated with 400 ng of ^125I-labelled conjugate (that is an excess of receptor substrate) for 30 min. in phosphate buffered saline (PBS), 0.5 % albumin, 0.05 % Tween-20 (BB-buffer). After centrifugation, the ^125I-activity bound to the bacterial pellet was measured by gamma scintillation counting. Binding experiments were reproducible and performed in triplets. In addition, the level of binding-activity within the strain was stabile.

[4] = system: babA1A2-mutant; assay: Scatchard affinity analysis with sialylated conjugates; type: binding, Helicobacter pylori
From the text: as §5, with “1 ml of bacteria (A600= OD 0.10) was incubated with 400 ng of ^125I-labelled conjugate (that is an excess of receptor substrate) for 30 min. in phosphate buffered saline (PBS), 0.5 % albumin, 0.05 % Tween-20 (BB-buffer).” left out, “Binding experiments were reproducible and performed in triplets. In addition, the level of binding-activity within the strain was stabile.” left out

Molecule | Binding obtained with strain CCUG 17875 ([1]; Table 1) | Binding obtained with strain CCUG 17875 ([1]; Table 2) | Binding obtained with strain CCUG 17874, the babA2 mutant and the babA1A2 mutant ([2]; Table 1) | Binding obtained with strain CCUG 17874, the babA2 mutant and the babA1A2 mutant ([2]; Table 2) | binding of 125I-labelled neoglycoconjugate (in words) [3] | further results
NeuAcα3Galβ3GalNAcβ4(NeuAcα3)Galβ4Glcβ1Cer [GD1a] | - (- denotes no darkening even at 2 nmol) | - (– denotes no darkening even at 2 nmol) | - (- denotes no darkening even at 2 nmol) | - (– denotes no darkening even at 2 nmol) |  | 
Neu5Acα3Galβ4GlcNAc [equivalent structure linked by a shorter, 3 carbon spacer] |  |  |  |  | much reduced in binding | 
NeuAcα3Galβ4(Fucα3)GlcNAcβ3Galβ4(Fucα3)GlcNAcβ3Galβ4Glcβ1Cer | - (- denotes no darkening even at 2 nmol) | - (– denotes no darkening even at 2 nmol) | +++ (+++ denotes a significant darkening on the autoradiogram when 1 pmol was applied on the thin-layer plate) | +3 (+3 denotes a significant darkening on the autoradiogram when 1 pmol of structure was applied on the thin-layer plate) |  | detection level ([2]; binding on thin-layer chromatogram): approximately 1 pmol
Neu5Acα3Galβ4GlcNAc [alfa2.31actoseamine with a 14 carbon spacer] |  |  |  |  | rather efficient binding | 
Galβ3GalNAcβ4(NeuAcα3)Galβ4Glcβ1Cer [GM1] | - (- denotes no darkening even at 2 nmol) | - (– denotes no darkening even at 2 nmol) | - (- denotes no darkening even at 2 nmol) | - (– denotes no darkening even at 2 nmol) |  | 
Fucα2Galβ3(Fucα4)GlcNAcβ3Galβ4Glcβ1Cer [Le^b-6] | +^3 (+ denotes a darkening at 2 nmol) | +3 (+3 denotes a significant darkening on the autoradiogram when 1 pmol of structure was applied on the thin-layer plate) | - (- denotes no darkening even at 2 nmol) | - (– denotes no darkening even at 2 nmol) |  | binding to glycosphingolipids on thin-layer chromatograms (in words) [2]: did not recognize
NeuAcα3Galβ4Glcβ1Cer [GM3] | - (- denotes no darkening even at 2 nmol) | - (– denotes no darkening even at 2 nmol) | - (- denotes no darkening even at 2 nmol) | - (– denotes no darkening even at 2 nmol) |  | 
CC(=O)NC1C(O)CC(OCC2OC(OC3C(CO)OC(O)C(O)C3O)C(O)C(O)C2O)(C(=O)O)OC1C(O)C(O)CO (centres unmarked) [sialyl-alfa2.61actose antigen, Neu5Acα6Galβ4Glc] |  |  |  |  | Poor binding | binding of 125I-labelled neoglycoconjugate (in words) ([3]; listed as sialyl-alfa 2,6 lactose conjugate): did not demonstrate any binding activity
Galβ3GalNAcβ4(NeuAcα8NeuAcα3)Galβ4Glcβ1Cer [GD1b] | - (- denotes no darkening even at 2 nmol) | - (– denotes no darkening even at 2 nmol) | - (- denotes no darkening even at 2 nmol) | - (– denotes no darkening even at 2 nmol) |  | 
CC(=O)N[C@H]1[C@H]([C@H](O)[C@H](O)CO)O[C@@](O[C@H]2[C@@H](O)[C@@H](CO)O[C@@H](O[C@H]3[C@H](O)[C@@H](O)C(O)O[C@@H]3CO)[C@@H]2O)(C(=O)O)C[C@@H]1O (some centres unmarked) [sialyl-alfa2.31actose antigen, Neu5Acα3Galβ4Glc] |  |  |  |  | Poor binding | fold lower affinity ([4]; compared with the fucosylated sialyl-Lewis x structures): 20 fold; Kd ([4]; read-out: affinity according to Scatchard): 100 nM
NeuAcα3Galβ3(Fucα4)GlcNAcβ3Galβ4Glcβ1Cer [S-Le^a] |  | - (– denotes no darkening even at 2 nmol) |  | - (– denotes no darkening even at 2 nmol) |  | binding to glycosphingolipids on thin-layer chromatograms (in words) [2]: almost no binding
NeuAcα3Galβ4(Fucα3)GlcNAcβ3Galβ4Glcβ1Cer [S-Le^x] |  |  |  |  |  | binding to glycosphingolipids on thin-layer chromatograms (in words) [2]: weak binding; amount required for binding ([2]; weak, occasionally observed binding on thin-layer chromatogram): 2 nmol
